This note sets out measurements from patent US20090105220A1, “PROCESS FOR THE PREPARATION OF NONPEPTIDE SUBSTITUTED SPIROBENZOAZEPINE DERIVATIVES” (priority 2003, published 2009).

Structures can show the parent of a compound that is named as a salt.

The term melting point denotes the temperature, or range, at which the solid turns liquid. Turning to `O=C(O)C1=C[C@@]2(CC1)CCN(C(=O)c1ccc(NC(=O)c3ccccc3-c3ccccc3)cc1)c1ccccc1C2`, the melting point was 263 to 265 °C. With `CN(C)CCNC(=O)C1=C[C@@]2(CC1)CCN(C(=O)c1ccc(NC(=O)c3ccccc3-c3ccccc3)cc1)c1ccccc1C2.O=C(O)c1ccccc1`, the melting point is 180 to 185 °C (dec.). With `CN(C)CCNC(=O)C1=C[C@@]2(CC1)CCN(C(=O)c1ccc(NC(=O)c3ccccc3F)cc1)c1ccccc1C2` (as salt: phosphate), the melting point is 148 to 158 °C (dec.).
